Among the data in patent US20260207565A1, “COMPOUNDS THAT INHIBIT PKMYT1” (Exelixis, Inc., priority 2022, published 2026) are IC50 values, retold here.

One assay deals with T1, PKMYT1 (Homo sapiens, UniProt Q99640).
T1 construct: PKMYT1 (93 kD, full length, N-terminal GST tag from Signal Chem); GST (N); purchased Signal Chem
T1 sequence (Q99640 1-499): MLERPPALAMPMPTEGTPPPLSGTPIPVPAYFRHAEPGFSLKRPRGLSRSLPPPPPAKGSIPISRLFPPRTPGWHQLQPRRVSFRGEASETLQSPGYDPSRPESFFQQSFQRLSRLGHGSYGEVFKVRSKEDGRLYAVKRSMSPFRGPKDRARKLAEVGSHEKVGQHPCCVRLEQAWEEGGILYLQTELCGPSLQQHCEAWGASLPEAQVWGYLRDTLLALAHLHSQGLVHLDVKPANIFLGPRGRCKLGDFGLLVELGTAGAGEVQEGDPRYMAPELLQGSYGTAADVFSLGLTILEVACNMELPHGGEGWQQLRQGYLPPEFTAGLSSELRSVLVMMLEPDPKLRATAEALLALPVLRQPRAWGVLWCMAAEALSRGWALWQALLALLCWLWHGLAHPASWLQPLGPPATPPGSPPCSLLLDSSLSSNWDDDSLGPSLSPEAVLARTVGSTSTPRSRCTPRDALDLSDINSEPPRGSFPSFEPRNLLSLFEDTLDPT
As to the kind of experiment: ADP-Glo PKMYT1 ATP-depletion assay. Particulars: 50 nM PKMYT1, 13.3 nM CDK1, 88 μM ATP, 120 minutes at RT, read-out: Biochemical IC50. The method, boiled down: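 Full-length N-GST PKMYT1 (50 nM) incubated 120 min at RT with full-length GST-CDK1 (13.3 nM) and 88 μM ATP in Hepes buffer containing Mg2+, Mn2+, DTT and BSA; DMSO <10%. ADP formed was converted via ADP-Glo to luminescence; IC50 derived.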

Assay [1] deals with phosphorylation of CDK1 at Thr14 in HCC1806 cells. As to the kind of experiment: Cell lysate AlphaLISA assay measuring inhibition of phosphorylation of CDK1 Thr14. Type of assay: cell-based. Particulars: Homo sapiens, HCC1806, 4 h, compounds incubated 4 hours, AlphaLISA SureFire Ultra CDK1 Thr14, read-out: Cellular IC50. The essentials:
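HCC1806 cells treated with compound for 4 h at 37 °C, lysed, and phospho-CDK1 Thr14 quantified by AlphaLISA SureFire Ultra. Data normalized to DMSO (0% inhibition) and 3 μM reference compound; IC50 derived.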

As for `Cc1ccc(O)c(C)c1-c1cc(C(N)=O)nc2c1c(C#N)cn2C` [Compound 22, 3-cyano-4-(3-hydroxy-2,6-dimethylphenyl)-1-methyl-pyrrolo[2,3-b]pyridine-6-carboxamide], the 50% inhibitory concentration (IC50) at PKMYT1 was < 50 nM; in assay [1], 50 to 500 nM.
Consider `Cc1ccc(O)c(C)c1-c1c(N)c(C(N)=O)cc2c1ncn2C(F)(F)F` (atropisomer, axis not shown; (P)) [Compound 70, (P)-5-Amino-4-(3-hydroxy-2,6-dimethylphenyl)-1-(trifluoromethyl)-1H-benzo[d]imidazole-6-carboxamide], for which the concentration for half-maximal inhibition (IC50) (at PKMYT1; in assay [1]) was < 50 nM in each case.
As to `CCn1cc(-n2ccnc2)c2c(-c3c(C)ccc(O)c3C)cc(C(N)=O)nc21` (atropisomer, axis not shown; (P)) [Compound 97, (P)-1-ethyl-4-(3-hydroxy-2,6-dimethylphenyl)-3-(1H-imidazol-1-yl)-1H-pyrrolo[2,3-b]pyridine-6-carboxamide], the figures for the IC50 (on PKMYT1; in assay [1]) were 50 to 500 nM and 1000 to 5000 nM, respectively.
Consider `Cc1c(O)cccc1-c1c(N)c(C(N)=O)nc2c1c(C(N)=O)nn2C` [Compound 55, 5-amino-4-(3-hydroxy-2-methylphenyl)-1-methyl-1H-pyrazolo[3,4-b]pyridine-3,6-dicarboxamide], for which the IC50 on PKMYT1 was < 50 nM; in assay [1] it was 50 to 500 nM.
For the compound `Cc1ccc(O)c(C)c1-c1cc(C(N)=O)cn2ccnc12` [Compound 42, 8-(3-hydroxy-2,6-dimethylphenyl)imidazo[1,2-a]pyridine-6-carboxamide], the half-maximal inhibitory concentration (IC50) (on PKMYT1; in assay [1]) was 1000 to 5000 nM in each case.
In the case of `Cc1c(O)cccc1-c1c(N)c(C(N)=O)cn2c(C)nnc12` (single isomer, unassigned) [Compound 52, (P)-7-Amino-8-(3-hydroxy-2-methylphenyl)-3-methyl-[1,2,4]triazolo[4,3-a]pyridine-6-carboxamide], the IC50 is 50 to 500 nM at PKMYT1 and ≥ 5000 nM in assay [1].
With `Cc1ccc(O)c(C)c1-c1cc(C(N)=O)nc2c1c(Br)cn2C` [Compound 24], the half-maximal inhibitory concentration (IC50) lay within 50 to 500 nM at PKMYT1 and 1000 to 5000 nM in assay [1].
On to `Cn1cc(C#N)c2c(-c3cccc(O)c3)c(N)c(C(N)=O)nc21` [Compound 7, 5-Amino-3-cyano-4-(3-hydroxyphenyl)-1-methyl-1H-pyrrolo[2,3-b]pyridine-6-carboxamide], for which the figures for the concentration for half-maximal inhibition (IC50) (at PKMYT1; in assay [1]) were < 50 nM and 50 to 500 nM, respectively.
Taken in the same sequence, the figures for `Cc1c(O)cccc1-c1c(N)c(C(N)=O)cn2c(C)nnc12` (racemic) [Compound 51, 7-Amino-8-(3-hydroxy-2-methylphenyl)-3-methyl-[1,2,4]triazolo[4,3-a]pyridine-6-carboxamide] were 500 to 1000 nM and ≥ 5000 nM.
Turning to `Cc1c(F)cncc1-c1c(N)c(C(N)=O)nc2c1c(C#N)cn2C` [Compound 8, 5-Amino-3-cyano-4-(5-fluoro-4-methylpyridin-3-yl)-1-methyl-1H-pyrrolo[2,3-b]pyridine-6-carboxamide], the figures for the half-maximal inhibitory concentration (IC50) (at PKMYT1; in assay [1]) were < 50 nM and 50 to 500 nM, respectively.
Consider `Cc1ccc(O)c(C)c1-c1c(N)c(C(N)=O)nc2c1ncn2C1CC1` (single isomer, unassigned) [Compound 77, (P)-6-amino-3-cyclopropyl-7-(3-hydroxy-2,6-dimethylphenyl)-3H-imidazo[4,5-b]pyridine-5-carboxamide], for which the IC50 (on PKMYT1; in assay [1]) was < 50 nM in each case.
Take `Cc1ccc(O)c(C)c1-c1c(N)c(C(N)=O)cc2c1nc(C)n2C` [Compound 15, 5-amino-4-(3-hydroxy-2,6-dimethylphenyl)-1,2-dimethyl-1H-benzo[d]imidazole-6-carboxamide]: the half-maximal inhibitory concentration (IC50) at PKMYT1 was < 50 nM; in assay [1] it was 500 to 1000 nM.
Turning to `Cc1c(O)cccc1-c1c(N)c(C(N)=O)nc2c1cnn2C` [Compound 56, 5-Amino-4-(3-hydroxy-2-methylphenyl)-1-methyl-pyrazolo[3,4-b]pyridine-6-carboxamide], the 50% inhibitory concentration (IC50) was 50 to 500 nM on PKMYT1 and ≥ 5000 nM in assay [1].
Taken in the same sequence, the figures for `Cc1ccc(O)c(C)c1-c1cc(C(N)=O)nc2c1ccn2C` [Compound 21, 4-(3-hydroxy-2,6-dimethylphenyl)-1-methyl-pyrrolo[2,3-b]pyridine-6-carboxamide] were 500 to 1000 nM and ≥ 5000 nM.
For the compound `CCn1cc(C#N)c2c(-c3c(C)ccc(O)c3C)cc(C(N)=O)nc21` [Compound 29, 3-cyano-1-ethyl-4-(3-hydroxy-2,6-dimethylphenyl)pyrrolo[2,3-b]pyridine-6-carboxamide], the 50% inhibitory concentration (IC50) (at PKMYT1; in assay [1]) was < 50 nM each time.
For the compound `Cc1ccc(O)c(C)c1-c1cc(C(=O)N(C)C)cc2cn[nH]c12` [Compound 39], the IC50 on PKMYT1 was ≥ 5000 nM; in assay [1], 1000 to 5000 nM.
Regarding `CCn1cc(C(N)=O)c2c(-c3c(C)ccc(O)c3C)c(N)c(C(N)=O)nc21` (atropisomer, axis not shown; (M)) [Compound 76, (M)-5-Amino-1-ethyl-4-(3-hydroxy-2,6-dimethylphenyl)-1H-pyrrolo[2,3-b]pyridine-3,6-dicarboxamide], the IC50 (at PKMYT1; in assay [1]) was < 50 nM in each case.
As to `[2H]c1cc(C)c(-c2cc(C(N)=O)nc3c2c(C#N)cn3CC)c(C)c1O` (atropisomer, axis not shown; (P)) [Compound 89, (P)-3-cyano-1-ethyl-4-(3-hydroxy-2,6-dimethylphenyl-4-d)-1H-pyrrolo[2,3-b]pyridine-6-carboxamide], the half-maximal inhibitory concentration (IC50) (on PKMYT1; in assay [1]) was < 50 nM throughout.
Regarding `CNC(=O)c1cc(-c2c(C)ccc(O)c2C)c2[nH]ncc2n1` [Compound 19, 7-(3-hydroxy-2,6-dimethylphenyl)-N-methyl-1H-pyrazolo[4,3-b]pyridine-5-carboxamide], the IC50 (at PKMYT1; in assay [1]) was ≥ 5000 nM each time.
For the compound `CCn1cc(C(N)=O)c2c(-c3cccc(O)c3C)c(N)c(C(N)=O)nc21` (atropisomer, axis not shown; (M)) [Compound 96, (M)-5-amino-1-ethyl-4-(3-hydroxy-2-methylphenyl)-1H-pyrrolo[2,3-b]pyridine-3,6-dicarboxamide], the concentration for half-maximal inhibition (IC50) (at PKMYT1; in assay [1]) was < 50 nM in each case.
With `Cc1c(O)cccc1-c1cc(C(N)=O)nc2c1c(C#N)cn2C` [Compound 28, 3-cyano-4-(3-hydroxy-2-methylphenyl)-1-methyl-pyrrolo[2,3-b]pyridine-6-carboxamide], the 50% inhibitory concentration (IC50) on PKMYT1 fell in the range of 50 to 500 nM; in assay [1] it was 500 to 1000 nM.
Turning to `Cc1c(O)cccc1-c1c(N)c(C(N)=O)nc2c1c(C#N)cn2C` (racemic) [Compound 4, 5-Amino-3-cyano-4-(3-hydroxy-2-methylphenyl)-1-methyl-1H-pyrrolo[2,3-b]pyridine-6-carboxamide], the IC50 (on PKMYT1; in assay [1]) was < 50 nM throughout.
`Cc1ccc(O)c(C)c1-c1c(N)c(C(N)=O)cc2c1ncn2-c1ncccc1F` (atropisomer, axis not shown; (P)) [Compound 87, (P)-5-amino-1-(3-fluoropyridin-2-yl)-4-(3-hydroxy-2,6-dimethylphenyl)-1H-benzo[d]imidazole-6-carboxamide]: the half-inhibitory concentration (IC50) (on PKMYT1; in assay [1]) was < 50 nM in each case.
